Assay results reported in patent US20120172361A1, “TRIAZINE DERIVATIVES AND THEIR THERAPEUTICAL APPLICATIONS” (CALIFORNIA CAPITAL EQUITY, LLC, priority 2009, published 2012).

Molecular target: T1, Aurora-A(h) (Homo sapiens, UniProt O14965)
T1 construct: purchased Millipore (KinaseProfiler service); also Reaction Biology Corp. (Kinase Hotspot)
T1 sequence (O14965 1-403): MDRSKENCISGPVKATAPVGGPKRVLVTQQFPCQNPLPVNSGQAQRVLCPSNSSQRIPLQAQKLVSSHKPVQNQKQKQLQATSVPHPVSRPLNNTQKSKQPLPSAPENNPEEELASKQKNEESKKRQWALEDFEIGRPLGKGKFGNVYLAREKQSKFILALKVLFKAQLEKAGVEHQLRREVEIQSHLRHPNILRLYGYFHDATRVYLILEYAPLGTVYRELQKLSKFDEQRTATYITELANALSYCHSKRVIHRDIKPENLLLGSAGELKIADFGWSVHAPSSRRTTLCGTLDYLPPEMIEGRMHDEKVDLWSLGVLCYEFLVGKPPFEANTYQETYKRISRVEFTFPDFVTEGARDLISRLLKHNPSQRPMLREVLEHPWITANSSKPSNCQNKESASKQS
Experiment: Aurora-A kinase assay (KinaseProfiler Service Assay Protocols, Millipore; also Kinase Hotspot, Reaction Biology Corp.)
Assay type: biochemical
Conditions: compound concentration 1 μM
Protocol: This example illustrated Aurora Kinase Assays of selected Compounds from this invention (referred to Daniele Fancelli et al, J. Med. Chem., 2006, 49 (24), pp 7247-7251). The KinaseProfiler™ Service Assay Protocols (Millipore) were used to test the kinase inhibiting activity of novel compounds from this invention. To do this, the buffer composition was as: 20 mM MOPS, 1 mM EDTA, 0.01% Brij-35, 5% Glycerol, 0.1% β-mercaptoethanol, 1 mg/mL BSA. Test compounds were initially dissolved in DMSO at the desired concentration, then serially diluted to the kinase assay buffer. In a final reaction volume of 25 μL, Aurora-A(h) (5-10 mU) is incubated with 8 mM MOPS pH 7.0, 0.2 mM EDTA, 200 μM LRRASLG (Kemptide), 10 mM MgAcetate and [γ33P-ATP]. The reaction was initiated by the addition of the MgATP mix. After incubation for 40 minute at room temperature, the reaction was stopped by addition of 5 μL of a 3% phosphoric acid solution. 10 μL of the reaction was then spotted onto a P30 filtermat and washed three times for 5 minutes in 50 mM phosphoric acid and once in methanol prior to drying and scintillation counting. Wells containing substrate but no kinase and wells containing a phosphopeptide control were used to set 0% and 100% phosphorylation value, respectively.
Also Kinase Hotspot SM kinase assay was used to test the compounds for IC50 or % inhibitions (Reaction Biology Corp.). Inhibitor IC50 values were determined by titration of compound at the optimal kinase concentration (Kinase EC50).

Structure (SMILES)	inhibition at 1 µM [%]
CCc1nc(Nc2cc(C)[nH]n2)nc(N2CCN(c3ccncc3)CC2)n1 [Example 13]	> 50
Cc1cnc(Nc2nc(Sc3ccc(NC(=O)C4CC4)cc3)nc(N3CCOCC3)n2)s1 [Example 21]	> 90
Cc1cc(Nc2nc(Sc3ccc(N)cc3)nc(C3CC3)n2)n[nH]1 [Example 45]	> 50
CCc1nc(Nc2cc(C)[nH]n2)nc(Sc2ccc(NC(=O)C3CC3)cc2)n1 [Example 4]	> 90
Cc1cnc(Nc2nc(N3CCN(C)CC3)nc(N3CCN(C)CC3)n2)s1 [Example 47]	< 50
CN1CCN(c2nc(Nc3cc(C(C)(C)C)[nH]n3)nc(Sc3ccc(NC(=O)C4CC4)cc3)n2)CC1 [Example 54]	> 50

Next, values leading:

inhibition at 1 µM [%]	Structure (SMILES)
< 50	Cc1cc(Nc2nc(Sc3ccc(NC(=O)C4CC4)cc3)nc(N3CCN(C)CC3)n2)sn1 [Example 78]
> 50	Cc1cn(-c2nc(Sc3ccc(NC(=O)c4ccccc4)cc3)nc(N3CCN(C)CC3)n2)c(=N)s1 [Example 112]
> 50	CC(C)c1cc(Nc2nc(Sc3ccc(NC(=O)C4CC4)cc3)nc(N3CCN(C)CC3)n2)n[nH]1 [Example 56]
> 90	CCC(=O)Nc1ccc(Sc2nc(C)nc(Nc3cc(C)[nH]n3)n2)cc1 [Example 86]
< 50	Cc1nnc(Nc2nc(Sc3ccc(NC(=O)C4CC4)cc3)nc(N3CCN(C)CC3)n2)s1 [Example 77]
> 90	CC(C)C(=O)Nc1ccc(Sc2nc(Nc3cc(C4CC4)[nH]n3)nc(C3CC3)n2)cc1 [Example 79]
> 90	Cc1cc(Nc2nc(NCCN(C)C)nc(Sc3ccc(NC(=O)C4CC4)cc3)n2)n[nH]1 [Example 91]
> 90	Cc1cnc(Nc2nc(Sc3ccc(NC(=O)c4ccccc4)cc3)nc(N3CCN(C)CC3)n2)s1 [Example 113]
< 50	CCCc1cc(Nc2nc(Sc3ccc(NC(=O)C4CC4)cc3)nc(N3CCN(C)CC3)n2)n[nH]1 [Example 57]
